Assays:
[1] = system: HEK293; assay: Cytotoxicity against human HEK293 cells after 72 hrs by luminescence assay; format: cell-based; conditions: hek293, 72 h
[2] = system: Raji; assay: Cytotoxicity against human Raji cells after 72 hrs by luminescence assay; format: cell-based
[3] = system: HepG2; assay: Cytotoxicity against human HepG2 cells after 72 hrs by luminescence assay; format: cell-based; conditions: hepg2, 72 h
[4] = system: BJ; assay: Cytotoxicity against human BJ cells after 72 hrs by luminescence assay; format: cell-based
[5] = Selectivity ratio of EC50 for human HepG2 cells to EC50 for Plasmodium falciparum

SMILES: Cl.O=C(CCc1ccc(F)cc1)c1cc(F)ccc1OCC(O)CNCc1ccccc1 (racemic)
- Activity [1]: Non-toxic
- Activity [2]: Non-toxic
- Activity [3]: Non-toxic
- Activity [4]: Non-toxic
- selectivity ratio [5]: > 10

SMILES: Cl.O=C(CCc1ccc(F)cc1)c1cc(F)ccc1OCC(O)CN(Cc1ccccc1)c1ccccc1 (racemic)
- Activity [1]: Non-toxic
- Activity [2]: Non-toxic
- Activity [3]: Non-toxic
- Activity [4]: Non-toxic
- selectivity ratio [5]: > 10

SMILES: Cc1cccc(N(CC(O)COc2ccc(F)cc2C(=O)CCc2ccc(F)cc2)c2ccccc2)c1.Cl (racemic)
- Activity [1]: Non-toxic
- Activity [2]: Non-toxic
- Activity [3]: Non-toxic
- Activity [4]: Non-toxic
- selectivity ratio [5]: > 10

SMILES: COc1cccc(N(CC(O)COc2ccc(F)cc2C(=O)CCc2ccc(F)cc2)c2ccccc2)c1.Cl (racemic)
- Activity [1]: Non-toxic
- Activity [2]: Non-toxic
- Activity [3]: Non-toxic
- Activity [4]: Non-toxic
- selectivity ratio [5]: > 10

SMILES: CN(CCc1ccccc1)CC(O)COc1ccc(F)cc1C(=O)CCc1ccc(F)cc1.Cl (racemic)
- Activity [1]: Non-toxic
- Activity [2]: Non-toxic
- Activity [3]: Non-toxic
- Activity [4]: Non-toxic
- selectivity ratio [5]: > 10

SMILES: CCN(CC)CC(O)COc1ccc(F)cc1C(=O)CCc1ccc(F)cc1.Cl (racemic)
- Activity [1]: Non-toxic
- Activity [2]: Non-toxic
- Activity [3]: Non-toxic
- Activity [4]: Non-toxic
- selectivity ratio [5]: > 10

SMILES: CCCN(CCC)CC(O)COc1ccc(F)cc1C(=O)CCc1ccc(F)cc1.Cl (racemic)
- Activity [1]: Non-toxic
- Activity [2]: Non-toxic
- Activity [3]: Non-toxic
- Activity [4]: Non-toxic
- selectivity ratio [5]: > 10

SMILES: CCCCN(CCCC)CC(O)COc1ccc(F)cc1C(=O)CCc1ccc(F)cc1.Cl (racemic)
- Activity [1]: Non-toxic
- Activity [2]: Non-toxic
- Activity [3]: Non-toxic
- Activity [4]: Non-toxic
- selectivity ratio [5]: > 10

SMILES: CC(C)N(CC(O)COc1ccc(F)cc1C(=O)CCc1ccc(F)cc1)c1ccccc1.Cl (racemic)
- Activity [1]: Non-toxic
- Activity [2]: Non-toxic
- Activity [3]: Non-toxic
- Activity [4]: Non-toxic
- selectivity ratio [5]: > 10

SMILES: Cl.O=C(CCc1ccc(F)cc1)c1cc(F)ccc1OCC(O)CN(C1CCCCC1)C1CCCCC1 (racemic)
- Activity [1]: Non-toxic
- Activity [2]: Non-toxic
- Activity [3]: Non-toxic
- Activity [4]: Non-toxic
- selectivity ratio [5]: > 10

SMILES: Cl.O=C(CCc1ccccc1)c1ccccc1OCC(O)CN1CCCCC1 (racemic)
- Activity [1]: Non-toxic
- Activity [2]: Non-toxic
- Activity [3]: Non-toxic
- Activity [4]: Non-toxic
- selectivity ratio [5]: > 10

SMILES: Cl.O=C(CCc1ccccc1)c1ccccc1OCC(O)CN1CCC(Cc2ccccc2)CC1 (racemic)
- Activity [1]: Non-toxic
- Activity [2]: Non-toxic
- Activity [3]: Non-toxic
- Activity [4]: Non-toxic
- selectivity ratio [5]: > 10

SMILES: Cl.O=C(CCc1ccccc1)c1ccccc1OCC(O)CN1CCC(c2ccc(Cl)cc2)CC1 (racemic)
- Activity [1]: Non-toxic
- Activity [2]: Non-toxic
- Activity [3]: Non-toxic
- Activity [4]: Non-toxic
- selectivity ratio [5]: > 10

SMILES: Cl.O=C(CCc1ccccc1)c1ccccc1OCC(O)CN1CCC(O)(Cc2ccccc2)CC1 (racemic)
- Activity [1]: Non-toxic
- Activity [2]: Non-toxic
- Activity [3]: Non-toxic
- Activity [4]: Non-toxic
- selectivity ratio [5]: > 10

SMILES: Cl.O=C(CCc1ccccc1)c1ccccc1OCC(O)CN1CCC(O)(c2ccc(Cl)cc2)CC1 (racemic)
- Activity [1]: Non-toxic
- Activity [2]: Non-toxic
- Activity [3]: Non-toxic
- Activity [4]: Non-toxic
- selectivity ratio [5]: > 10

SMILES: Cl.O=C(CCc1ccccc1)c1ccccc1OCC(O)CN1CCN(c2ccccc2)CC1 (racemic)
- Activity [1]: Non-toxic
- Activity [2]: Non-toxic
- Activity [3]: Non-toxic
- Activity [4]: Non-toxic
- selectivity ratio [5]: > 10

SMILES: Cl.O=C(CCc1ccccc1)c1ccccc1OCC(O)CN1CCN(Cc2ccccc2)CC1 (racemic)
- Activity [1]: Non-toxic
- Activity [2]: Non-toxic
- Activity [3]: Non-toxic
- Activity [4]: Non-toxic
- selectivity ratio [5]: > 10

SMILES: Cc1ccccc1N1CCN(CC(O)COc2ccccc2C(=O)CCc2ccccc2)CC1.Cl (racemic)
- Activity [1]: Non-toxic
- Activity [2]: Non-toxic
- Activity [3]: Non-toxic
- Activity [4]: Non-toxic
- selectivity ratio [5]: > 10

SMILES: Cc1cccc(N2CCN(CC(O)COc3ccccc3C(=O)CCc3ccccc3)CC2)c1.Cl (racemic)
- Activity [1]: Non-toxic
- Activity [2]: Non-toxic
- Activity [3]: Non-toxic
- Activity [4]: Non-toxic
- selectivity ratio [5]: > 10

SMILES: COc1ccccc1N1CCN(CC(O)COc2ccccc2C(=O)CCc2ccccc2)CC1.Cl (racemic)
- Activity [1]: Non-toxic
- Activity [2]: Non-toxic
- Activity [3]: Non-toxic
- Activity [4]: Non-toxic
- selectivity ratio [5]: > 10

SMILES: COc1cccc(N2CCN(CC(O)COc3ccccc3C(=O)CCc3ccccc3)CC2)c1.Cl (racemic)
- Activity [1]: Non-toxic
- Activity [2]: Non-toxic
- Activity [3]: Non-toxic
- Activity [4]: Non-toxic
- selectivity ratio [5]: > 10

SMILES: COc1ccc(N2CCN(CC(O)COc3ccccc3C(=O)CCc3ccccc3)CC2)cc1.Cl (racemic)
- Activity [1]: Non-toxic
- Activity [2]: Non-toxic
- Activity [3]: Non-toxic
- Activity [4]: Non-toxic
- selectivity ratio [5]: > 10

SMILES: Cl.O=C(CCc1ccccc1)c1ccccc1OCC(O)CN1CCN(c2ccccc2Cl)CC1 (racemic)
- Activity [1]: Non-toxic
- Activity [2]: Non-toxic
- Activity [3]: Non-toxic
- Activity [4]: Non-toxic
- selectivity ratio [5]: > 10

SMILES: Cl.O=C(CCc1ccccc1)c1ccccc1OCC(O)CN1CCN(c2ccc(Cl)cc2)CC1 (racemic)
- Activity [1]: Non-toxic
- Activity [2]: Non-toxic
- Activity [3]: Non-toxic
- Activity [4]: Non-toxic
- selectivity ratio [5]: > 10

SMILES: Cl.O=C(CCc1ccccc1)c1ccccc1OCC(O)CN1CCN(c2ccc(Cl)c(Cl)c2)CC1 (racemic)
- Activity [1]: Non-toxic
- Activity [2]: Non-toxic
- Activity [3]: Non-toxic
- Activity [4]: Non-toxic
- selectivity ratio [5]: > 10

SMILES: Cl.O=C(CCc1ccccc1)c1ccccc1OCC(O)CN1CCN(c2ccccc2F)CC1 (racemic)
- Activity [1]: Non-toxic
- Activity [2]: Non-toxic
- Activity [3]: Non-toxic
- Activity [4]: Non-toxic
- selectivity ratio [5]: > 10

SMILES: Cl.O=C(CCc1ccccc1)c1ccccc1OCC(O)CN1CCN(c2ccc(F)cc2)CC1 (racemic)
- Activity [1]: Non-toxic
- Activity [2]: Non-toxic
- Activity [3]: Non-toxic
- Activity [4]: Non-toxic
- selectivity ratio [5]: > 10

SMILES: Cl.O=C(CCc1ccccc1)c1ccccc1OCC(O)CN1CCN(c2ccc([N+](=O)[O-])cc2)CC1 (racemic)
- Activity [1]: Non-toxic
- Activity [2]: Non-toxic
- Activity [3]: Non-toxic
- Activity [4]: Non-toxic
- selectivity ratio [5]: > 10
